Data as given in PMC3075257, “Evaluation of Multidrug Efflux Pump Inhibitors by a New Method Using Microfluidic Channels” (PLoS ONE, 2011).

Experiments:
Assay type in all cases: cell-based
AcrAB-TolC = target: T1, AcrAB-TolC (Escherichia coli, UniProt P31224); assay: FDG influx and hydrolysis in wild-type against ΔacrB cells, microfluidic channel fluorescence microscopy; conditions: 100 µg/ml FDG, LB, lactose-induced β-galactosidase, 15 min, 37°C
T1 construct: gene acrB; native chromosomal pump in intact cells, judged against ΔacrB and ΔtolC deletion mutants; with Multidrug efflux pump subunit AcrA; Outer membrane protein TolC

MexAB-OprM = target: T2, MexAB-OprM (Pseudomonas aeruginosa, UniProt P52002); assay: fluorescein efflux from E. coli cells loaded with FDG, microfluidic channel fluorescence microscopy; conditions: ΔBC/pABM against vector control ΔBC/pV, 100 µg/ml FDG, LB, 15 min, 37°C; exported dye formed in the cell from FDG
T2 construct: gene mexB; full-length tripartite RND efflux pump from plasmid pMMB67HE::mexAB-oprM in E. coli MG1655 ΔacrBΔtolC, IPTG-induced; with Multidrug resistance protein MexA; Outer membrane protein OprM

MexXY-OprM = target: T3, MexXY-OprM (Pseudomonas aeruginosa, UniProt G3XCW2); assay: as above; conditions: ΔBC/pXYM against vector control ΔBC/pV, 100 µg/ml FDG, LB, 15 min, 37°C; exported dye formed in the cell from FDG
T3 construct: gene mexY; full-length tripartite RND efflux pump from plasmid pMMB67HE::mexXY-oprM in E. coli MG1655 ΔacrBΔtolC, IPTG-induced; with Multidrug efflux RND transporter periplasmic adaptor subunit MexX; Outer membrane protein OprM
T3 sequence (G3XCW2 entry or part of it): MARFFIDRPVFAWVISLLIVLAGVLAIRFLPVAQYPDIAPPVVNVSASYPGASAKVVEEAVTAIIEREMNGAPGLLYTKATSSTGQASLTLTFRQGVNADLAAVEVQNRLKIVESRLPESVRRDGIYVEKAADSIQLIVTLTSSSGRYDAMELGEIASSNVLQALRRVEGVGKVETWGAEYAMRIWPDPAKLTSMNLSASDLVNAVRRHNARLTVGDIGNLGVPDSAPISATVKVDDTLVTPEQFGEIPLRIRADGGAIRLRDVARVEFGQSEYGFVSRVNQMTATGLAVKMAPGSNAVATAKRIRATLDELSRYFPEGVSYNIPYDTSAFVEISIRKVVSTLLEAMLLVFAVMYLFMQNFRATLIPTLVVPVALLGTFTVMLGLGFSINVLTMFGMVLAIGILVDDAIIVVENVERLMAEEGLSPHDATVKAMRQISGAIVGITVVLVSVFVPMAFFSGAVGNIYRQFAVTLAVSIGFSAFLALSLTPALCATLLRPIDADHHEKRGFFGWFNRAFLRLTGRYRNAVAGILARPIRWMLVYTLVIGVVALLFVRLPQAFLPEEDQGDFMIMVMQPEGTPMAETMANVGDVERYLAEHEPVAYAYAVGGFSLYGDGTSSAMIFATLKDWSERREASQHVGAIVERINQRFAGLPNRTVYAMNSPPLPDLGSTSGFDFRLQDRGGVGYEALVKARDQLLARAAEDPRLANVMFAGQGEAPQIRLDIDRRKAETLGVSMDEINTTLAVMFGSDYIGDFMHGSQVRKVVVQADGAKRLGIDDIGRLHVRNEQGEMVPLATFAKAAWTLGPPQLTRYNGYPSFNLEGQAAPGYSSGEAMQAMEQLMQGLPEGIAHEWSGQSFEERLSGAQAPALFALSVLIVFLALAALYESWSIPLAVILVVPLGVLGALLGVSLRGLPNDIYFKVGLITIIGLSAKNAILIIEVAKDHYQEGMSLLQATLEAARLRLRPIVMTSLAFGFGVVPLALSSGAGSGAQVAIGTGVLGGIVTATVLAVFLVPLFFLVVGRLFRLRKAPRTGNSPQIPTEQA
T3 sequence (G3XD21 entry or part of it, further chain): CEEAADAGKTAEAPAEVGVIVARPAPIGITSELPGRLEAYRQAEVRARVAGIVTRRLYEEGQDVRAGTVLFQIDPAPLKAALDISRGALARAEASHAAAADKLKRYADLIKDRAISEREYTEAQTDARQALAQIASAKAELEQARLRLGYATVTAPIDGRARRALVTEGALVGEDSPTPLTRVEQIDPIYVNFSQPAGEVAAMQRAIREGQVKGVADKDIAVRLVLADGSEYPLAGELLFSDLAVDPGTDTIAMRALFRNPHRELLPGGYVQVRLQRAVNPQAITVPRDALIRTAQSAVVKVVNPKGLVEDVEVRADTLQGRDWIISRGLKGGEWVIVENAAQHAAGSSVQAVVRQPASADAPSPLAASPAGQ
T3 sequence (Q51487 18-485, further chain): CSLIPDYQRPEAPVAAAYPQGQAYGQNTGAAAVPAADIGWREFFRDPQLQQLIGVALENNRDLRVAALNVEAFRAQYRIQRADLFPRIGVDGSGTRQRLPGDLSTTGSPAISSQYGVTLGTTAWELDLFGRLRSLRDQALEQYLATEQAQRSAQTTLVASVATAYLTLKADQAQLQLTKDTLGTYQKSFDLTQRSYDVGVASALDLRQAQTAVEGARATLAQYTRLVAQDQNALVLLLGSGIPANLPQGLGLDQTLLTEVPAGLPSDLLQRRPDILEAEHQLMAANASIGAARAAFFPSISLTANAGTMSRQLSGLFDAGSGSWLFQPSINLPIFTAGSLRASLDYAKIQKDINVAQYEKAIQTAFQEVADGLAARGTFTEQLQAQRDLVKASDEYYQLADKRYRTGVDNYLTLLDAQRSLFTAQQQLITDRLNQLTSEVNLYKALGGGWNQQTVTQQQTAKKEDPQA

T1 sequence (P0AE06 25-397): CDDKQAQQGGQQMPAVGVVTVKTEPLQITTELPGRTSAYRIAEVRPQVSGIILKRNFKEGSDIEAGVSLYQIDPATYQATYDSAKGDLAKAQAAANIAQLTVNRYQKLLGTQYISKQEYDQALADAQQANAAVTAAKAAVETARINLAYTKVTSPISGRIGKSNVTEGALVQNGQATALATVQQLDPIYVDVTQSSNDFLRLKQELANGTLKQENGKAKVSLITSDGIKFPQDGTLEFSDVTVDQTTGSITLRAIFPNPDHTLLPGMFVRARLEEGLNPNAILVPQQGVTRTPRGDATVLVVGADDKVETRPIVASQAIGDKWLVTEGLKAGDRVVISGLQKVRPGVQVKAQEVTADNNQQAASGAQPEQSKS
T1 sequence (P02930 23-493, further chain): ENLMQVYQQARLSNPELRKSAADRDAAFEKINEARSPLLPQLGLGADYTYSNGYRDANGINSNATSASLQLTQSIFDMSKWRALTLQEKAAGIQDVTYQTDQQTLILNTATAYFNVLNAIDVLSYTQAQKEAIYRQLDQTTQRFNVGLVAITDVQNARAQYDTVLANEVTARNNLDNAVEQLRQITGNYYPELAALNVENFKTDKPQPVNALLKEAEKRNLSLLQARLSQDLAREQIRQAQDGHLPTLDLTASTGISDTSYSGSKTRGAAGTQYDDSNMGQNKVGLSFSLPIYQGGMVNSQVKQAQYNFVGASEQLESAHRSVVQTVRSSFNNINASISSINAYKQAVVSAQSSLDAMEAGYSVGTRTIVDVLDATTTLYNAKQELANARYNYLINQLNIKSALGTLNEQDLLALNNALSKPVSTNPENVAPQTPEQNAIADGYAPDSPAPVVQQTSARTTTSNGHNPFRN
T1 sequence (P31224 whole entry): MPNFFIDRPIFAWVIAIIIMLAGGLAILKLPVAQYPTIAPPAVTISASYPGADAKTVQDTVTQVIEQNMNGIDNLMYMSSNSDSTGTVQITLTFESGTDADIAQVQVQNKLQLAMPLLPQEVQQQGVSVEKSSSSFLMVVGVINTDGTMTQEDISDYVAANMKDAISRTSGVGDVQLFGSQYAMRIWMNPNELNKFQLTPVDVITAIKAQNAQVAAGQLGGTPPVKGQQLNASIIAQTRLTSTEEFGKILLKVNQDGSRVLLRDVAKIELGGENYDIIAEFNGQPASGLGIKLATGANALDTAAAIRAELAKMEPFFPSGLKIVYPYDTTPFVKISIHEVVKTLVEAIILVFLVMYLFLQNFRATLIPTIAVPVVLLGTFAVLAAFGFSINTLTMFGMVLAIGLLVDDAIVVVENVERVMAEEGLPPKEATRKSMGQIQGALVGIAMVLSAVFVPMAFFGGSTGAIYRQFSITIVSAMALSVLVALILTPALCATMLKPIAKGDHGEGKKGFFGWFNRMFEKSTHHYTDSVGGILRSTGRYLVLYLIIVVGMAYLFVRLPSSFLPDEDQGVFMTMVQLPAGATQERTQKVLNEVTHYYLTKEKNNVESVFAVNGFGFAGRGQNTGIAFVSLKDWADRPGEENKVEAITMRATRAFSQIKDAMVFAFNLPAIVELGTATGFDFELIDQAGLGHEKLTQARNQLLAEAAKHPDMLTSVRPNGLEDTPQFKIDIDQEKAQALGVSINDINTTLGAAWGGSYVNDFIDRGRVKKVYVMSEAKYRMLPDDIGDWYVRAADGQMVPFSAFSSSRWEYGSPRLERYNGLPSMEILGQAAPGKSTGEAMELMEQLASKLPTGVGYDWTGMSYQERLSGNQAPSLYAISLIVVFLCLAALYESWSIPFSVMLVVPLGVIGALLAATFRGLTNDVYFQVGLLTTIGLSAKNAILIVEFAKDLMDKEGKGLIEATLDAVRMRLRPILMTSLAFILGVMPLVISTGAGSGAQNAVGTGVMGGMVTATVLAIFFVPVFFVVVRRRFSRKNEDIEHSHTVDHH

SMILES | FDG influx and hydrolysis in wild-type against ΔacrB cells, microfluidic channel (AcrAB-TolC) | fluorescein efflux from E. coli cells loaded with FDG, microfluidic channel fluo (MexAB-OprM) | fluorescein efflux from E. coli cells loaded with FDG, microfluidic channel fluo (MexXY-OprM)
O=C1OC2(c3ccc(O[C@@H]4O[C@H](CO)[C@H](O)[C@H](O)[C@H]4O)cc3Oc3cc(O[C@@H]4O[C@H](CO)[C@H](O)[C@H](O)[C@H]4O)ccc32)c2ccccc21 [Fluorescein-di-β-D-galactopyranoside] | AcrAB-TolC and the analogous RND pumps effectively prevented FDG influx in E. coli wild-type cells | – | –
O=C1OC2(c3ccc(O)cc3Oc3cc(O)ccc32)c2ccccc21 [fluorescein] | – | The fluorescent medium was observed in ΔBC carrying pABM or pXYM | The fluorescent medium was observed in ΔBC carrying pABM or pXYM
